{"source": "the kinase profiling compilation of Christmann-Franck et al. (2016)", "assay_in_all_cases": "Caliper, Mobility shift assay off-chip", "key": {"AURKB (human)": {"target": "AURKB (human) (UniProt Q96GD4)"}, "LCK (human)": {"target": "LCK (human) (UniProt P06239)"}, "PRKD1 (human)": {"target": "PRKD1 (human) (UniProt Q15139)"}, "PRKCH (human)": {"target": "PRKCH (human) (UniProt P24723)"}, "GSK3B (human)": {"target": "GSK3B (human) (UniProt P49841)"}, "CAMK2B (human)": {"target": "CAMK2B (human) (UniProt Q13554)", "conditions": "compound 0.1 µM"}, "PRKCE (human)": {"target": "PRKCE (human) (UniProt Q02156)"}, "ROCK2 (human)": {"target": "ROCK2 (human) (UniProt O75116)"}, "TSSK1B (human)": {"target": "TSSK1B (human) (UniProt Q9BXA7)"}, "HCK (human)": {"target": "HCK (human) (UniProt P08631)", "sequence (P08631 whole entry, looked up)": "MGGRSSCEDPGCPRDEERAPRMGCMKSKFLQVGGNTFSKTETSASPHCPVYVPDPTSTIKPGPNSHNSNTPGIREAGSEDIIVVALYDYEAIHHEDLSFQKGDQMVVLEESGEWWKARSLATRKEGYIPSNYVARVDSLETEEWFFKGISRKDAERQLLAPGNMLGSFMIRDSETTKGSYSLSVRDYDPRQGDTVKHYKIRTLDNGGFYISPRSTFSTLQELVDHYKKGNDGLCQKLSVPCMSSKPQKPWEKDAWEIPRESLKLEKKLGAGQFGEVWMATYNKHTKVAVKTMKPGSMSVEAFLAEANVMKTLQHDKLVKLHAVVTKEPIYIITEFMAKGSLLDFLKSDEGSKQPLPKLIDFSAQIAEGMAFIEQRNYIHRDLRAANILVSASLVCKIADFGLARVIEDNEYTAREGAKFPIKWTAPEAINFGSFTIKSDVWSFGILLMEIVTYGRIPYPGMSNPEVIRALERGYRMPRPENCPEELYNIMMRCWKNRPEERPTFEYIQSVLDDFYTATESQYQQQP"}, "PIM1 (human)": {"target": "PIM1 (human) (UniProt P11309)", "sequence (P11309 whole entry, looked up)": "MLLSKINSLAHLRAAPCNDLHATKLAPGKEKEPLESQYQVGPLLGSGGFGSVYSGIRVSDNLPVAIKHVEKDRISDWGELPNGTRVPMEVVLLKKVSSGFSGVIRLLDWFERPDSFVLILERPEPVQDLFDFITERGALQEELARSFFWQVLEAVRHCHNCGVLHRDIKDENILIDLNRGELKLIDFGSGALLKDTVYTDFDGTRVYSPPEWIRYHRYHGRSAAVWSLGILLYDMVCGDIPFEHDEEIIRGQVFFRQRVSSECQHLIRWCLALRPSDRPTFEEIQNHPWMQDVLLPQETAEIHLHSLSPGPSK"}, "KDR (human)": {"target": "KDR (human) (UniProt P35968)"}, "MAPK11 (human)": {"target": "MAPK11 (human) (UniProt Q15759)"}, "CHEK1 (human)": {"target": "CHEK1 (human) (UniProt O14757)"}, "CHEK2 (human)": {"target": "CHEK2 (human) (UniProt O96017)"}, "[1]": {"test_system": "FGFR2 (human), P21802 [N549H]"}, "PRKCB1 (human)": {"target": "PRKCB1 (human) (UniProt P05771)", "conditions": "compound 1.0 µM"}, "AURKC (human)": {"target": "AURKC (human) (UniProt Q9UQB9)", "sequence (Q9UQB9 whole entry, looked up)": "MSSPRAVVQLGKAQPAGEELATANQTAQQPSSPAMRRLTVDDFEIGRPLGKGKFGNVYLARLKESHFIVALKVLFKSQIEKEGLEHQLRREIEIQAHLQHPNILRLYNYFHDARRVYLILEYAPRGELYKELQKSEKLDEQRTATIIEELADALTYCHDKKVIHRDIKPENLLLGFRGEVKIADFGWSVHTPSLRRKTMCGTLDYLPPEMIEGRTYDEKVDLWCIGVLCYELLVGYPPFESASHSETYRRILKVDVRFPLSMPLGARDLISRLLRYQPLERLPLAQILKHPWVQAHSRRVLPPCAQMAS"}, "CSNK1D (human)": {"target": "CSNK1D (human) (UniProt P48730)", "sequence (P48730 whole entry, looked up)": "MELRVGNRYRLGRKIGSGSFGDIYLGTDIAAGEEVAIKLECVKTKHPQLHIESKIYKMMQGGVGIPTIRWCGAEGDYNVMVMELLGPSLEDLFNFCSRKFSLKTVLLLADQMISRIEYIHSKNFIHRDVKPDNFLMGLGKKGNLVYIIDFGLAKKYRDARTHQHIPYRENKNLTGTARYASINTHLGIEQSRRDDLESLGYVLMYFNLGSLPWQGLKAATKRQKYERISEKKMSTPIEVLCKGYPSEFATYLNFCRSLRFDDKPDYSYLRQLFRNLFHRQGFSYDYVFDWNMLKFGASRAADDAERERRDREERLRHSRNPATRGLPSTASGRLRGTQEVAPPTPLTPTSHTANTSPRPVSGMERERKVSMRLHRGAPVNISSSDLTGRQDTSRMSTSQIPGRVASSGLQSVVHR"}, "MARK3 (human)": {"target": "MARK3 (human) (UniProt P27448)", "sequence (P27448 whole entry, looked up)": "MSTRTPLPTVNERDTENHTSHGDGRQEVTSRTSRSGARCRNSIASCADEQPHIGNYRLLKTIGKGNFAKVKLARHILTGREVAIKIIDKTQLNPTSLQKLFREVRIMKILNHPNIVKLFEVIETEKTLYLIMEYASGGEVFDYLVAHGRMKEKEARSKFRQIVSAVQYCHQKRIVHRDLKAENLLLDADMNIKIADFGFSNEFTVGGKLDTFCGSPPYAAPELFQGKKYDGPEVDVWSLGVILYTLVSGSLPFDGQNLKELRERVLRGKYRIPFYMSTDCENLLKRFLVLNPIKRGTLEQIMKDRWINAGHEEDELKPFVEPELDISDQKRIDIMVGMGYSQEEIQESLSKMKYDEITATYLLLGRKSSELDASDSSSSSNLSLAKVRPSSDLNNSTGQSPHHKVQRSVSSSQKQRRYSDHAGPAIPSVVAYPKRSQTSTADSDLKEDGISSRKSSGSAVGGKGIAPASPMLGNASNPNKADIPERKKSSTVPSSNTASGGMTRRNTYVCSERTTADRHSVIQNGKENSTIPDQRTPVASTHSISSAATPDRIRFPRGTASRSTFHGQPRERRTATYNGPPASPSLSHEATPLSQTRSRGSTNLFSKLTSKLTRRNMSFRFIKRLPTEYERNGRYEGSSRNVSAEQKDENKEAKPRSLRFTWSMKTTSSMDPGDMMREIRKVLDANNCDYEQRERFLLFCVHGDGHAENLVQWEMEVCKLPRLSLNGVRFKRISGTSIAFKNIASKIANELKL"}, "DYRK1A (human)": {"target": "DYRK1A (human) (UniProt Q13627)"}, "FLT3 (human)": {"target": "FLT3 (human) (UniProt P36888)"}, "MAPK14 (human)": {"target": "MAPK14 (human) (UniProt Q16539)"}, "TSSK2 (human)": {"target": "TSSK2 (human) (UniProt Q96PF2)", "conditions": "compound 1.0 µM"}, "FGFR4 (human)": {"target": "FGFR4 (human) (UniProt P22455)", "sequence (P22455 whole entry, looked up)": "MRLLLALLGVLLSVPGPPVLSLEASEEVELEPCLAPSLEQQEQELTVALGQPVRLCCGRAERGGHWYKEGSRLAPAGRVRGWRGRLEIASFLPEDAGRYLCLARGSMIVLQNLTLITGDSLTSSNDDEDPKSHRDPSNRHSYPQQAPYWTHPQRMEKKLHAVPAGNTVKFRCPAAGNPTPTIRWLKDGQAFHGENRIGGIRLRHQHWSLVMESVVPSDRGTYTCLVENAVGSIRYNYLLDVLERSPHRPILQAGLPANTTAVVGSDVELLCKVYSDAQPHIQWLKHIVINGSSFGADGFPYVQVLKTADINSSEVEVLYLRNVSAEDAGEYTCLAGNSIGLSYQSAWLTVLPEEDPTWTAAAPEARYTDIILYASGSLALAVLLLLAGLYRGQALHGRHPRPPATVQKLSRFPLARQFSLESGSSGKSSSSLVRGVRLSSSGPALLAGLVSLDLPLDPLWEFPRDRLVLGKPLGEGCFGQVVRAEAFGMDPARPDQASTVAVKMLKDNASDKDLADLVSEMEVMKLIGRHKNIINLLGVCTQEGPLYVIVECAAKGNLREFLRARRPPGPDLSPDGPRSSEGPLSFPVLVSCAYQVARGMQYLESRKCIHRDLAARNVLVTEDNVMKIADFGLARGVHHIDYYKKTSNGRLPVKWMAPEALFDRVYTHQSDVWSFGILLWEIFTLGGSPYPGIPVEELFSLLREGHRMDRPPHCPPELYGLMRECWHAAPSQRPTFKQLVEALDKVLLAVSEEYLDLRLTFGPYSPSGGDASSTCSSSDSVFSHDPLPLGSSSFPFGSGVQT"}, "MAPK13 (human)": {"target": "MAPK13 (human) (UniProt O15264)", "sequence (O15264 whole entry, looked up)": "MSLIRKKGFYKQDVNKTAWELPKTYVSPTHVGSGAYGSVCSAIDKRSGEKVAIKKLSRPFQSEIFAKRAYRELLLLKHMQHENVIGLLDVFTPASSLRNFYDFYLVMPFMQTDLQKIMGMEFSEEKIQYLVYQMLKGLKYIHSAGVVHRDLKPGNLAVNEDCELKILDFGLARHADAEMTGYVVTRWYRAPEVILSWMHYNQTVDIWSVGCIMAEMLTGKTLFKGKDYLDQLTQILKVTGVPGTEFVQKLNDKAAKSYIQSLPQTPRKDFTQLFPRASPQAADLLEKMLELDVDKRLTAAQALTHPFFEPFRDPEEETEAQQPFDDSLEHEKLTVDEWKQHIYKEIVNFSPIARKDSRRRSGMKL"}, "RAF1 (human)": {"target": "RAF1 (human) (UniProt P04049)"}, "IRAK4 (human)": {"target": "IRAK4 (human) (UniProt Q9NWZ3)"}, "ABL2 (human)": {"target": "ABL2 (human) (UniProt P42684)"}, "PIM2 (human)": {"target": "PIM2 (human) (UniProt Q9P1W9)", "sequence (Q9P1W9 whole entry, looked up)": "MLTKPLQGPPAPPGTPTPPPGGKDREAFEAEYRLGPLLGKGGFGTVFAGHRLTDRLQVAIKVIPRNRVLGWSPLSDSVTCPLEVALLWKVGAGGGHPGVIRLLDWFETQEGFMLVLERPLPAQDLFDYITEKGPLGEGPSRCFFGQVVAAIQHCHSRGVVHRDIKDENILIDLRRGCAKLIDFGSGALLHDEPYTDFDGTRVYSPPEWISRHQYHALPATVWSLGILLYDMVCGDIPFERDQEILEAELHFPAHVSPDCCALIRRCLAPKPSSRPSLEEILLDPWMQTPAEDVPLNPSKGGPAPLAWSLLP"}, "[2]": {"test_system": "ABL1 (human), P00519 [Q252H]"}, "PRKD3 (human)": {"target": "PRKD3 (human) (UniProt O94806)", "sequence (O94806 whole entry, looked up)": "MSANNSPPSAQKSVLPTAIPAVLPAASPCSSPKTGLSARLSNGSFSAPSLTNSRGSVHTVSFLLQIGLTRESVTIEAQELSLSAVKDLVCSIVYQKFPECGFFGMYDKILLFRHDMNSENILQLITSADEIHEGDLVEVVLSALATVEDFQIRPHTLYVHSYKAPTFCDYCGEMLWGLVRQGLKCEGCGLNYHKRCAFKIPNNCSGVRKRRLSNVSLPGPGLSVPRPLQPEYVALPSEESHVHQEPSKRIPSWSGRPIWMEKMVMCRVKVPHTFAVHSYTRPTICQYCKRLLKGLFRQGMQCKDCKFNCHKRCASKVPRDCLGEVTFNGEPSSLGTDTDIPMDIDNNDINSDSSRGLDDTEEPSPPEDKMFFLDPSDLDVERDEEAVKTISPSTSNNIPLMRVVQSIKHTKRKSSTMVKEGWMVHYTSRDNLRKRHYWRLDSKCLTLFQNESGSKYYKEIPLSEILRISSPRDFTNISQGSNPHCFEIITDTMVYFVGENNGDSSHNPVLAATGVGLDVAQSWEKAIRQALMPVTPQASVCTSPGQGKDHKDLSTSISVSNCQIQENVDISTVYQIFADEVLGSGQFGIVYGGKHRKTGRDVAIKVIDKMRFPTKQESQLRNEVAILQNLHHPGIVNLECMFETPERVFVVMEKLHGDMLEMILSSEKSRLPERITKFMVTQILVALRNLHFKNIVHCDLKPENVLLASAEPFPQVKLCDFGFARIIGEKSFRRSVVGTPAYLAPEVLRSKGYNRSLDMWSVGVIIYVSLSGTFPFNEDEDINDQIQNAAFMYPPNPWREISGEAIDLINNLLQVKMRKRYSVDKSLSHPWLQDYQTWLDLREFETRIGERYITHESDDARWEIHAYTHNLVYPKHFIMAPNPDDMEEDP"}, "IGF1R (human)": {"target": "IGF1R (human) (UniProt P08069)"}, "INSR (human)": {"target": "INSR (human) (UniProt P06213)"}}, "data": [{"smiles": "Cn1cc(-c2cnc3ccc4ccc(CS(=O)(=O)CCc5ccccn5)cc4c(=O)c3c2)cn1", "values": [{"measurement": "inhibition", "setting": "AURKB (human); compound 0.1 µM", "result": 10.5, "unit": "%"}, {"measurement": "inhibition", "setting": "AURKB (human); compound 1.0 µM", "result": 34.7, "unit": "%"}, {"measurement": "inhibition", "setting": "LCK (human); compound 0.1 µM", "result": 9.2, "unit": "%"}, {"measurement": "inhibition", "setting": "LCK (human); compound 1.0 µM", "result": 0.5, "unit": "%"}, {"measurement": "inhibition", "setting": "PRKD1 (human); compound 0.1 µM", "result": -3.6, "unit": "%"}, {"measurement": "inhibition", "setting": "PRKD1 (human); compound 1.0 µM", "result": -6.6, "unit": "%"}, {"measurement": "inhibition", "setting": "PRKCH (human); compound 0.1 µM", "result": -8.3, "unit": "%"}, {"measurement": "inhibition", "setting": "PRKCH (human); compound 1.0 µM", "result": -5.7, "unit": "%"}, {"measurement": "inhibition", "setting": "GSK3B (human); compound 0.1 µM", "result": -3.5, "unit": "%"}, {"measurement": "inhibition", "setting": "GSK3B (human); compound 1.0 µM", "result": 3, "unit": "%"}, {"measurement": "inhibition", "setting": "CAMK2B (human)", "result": 20.2, "unit": "%"}, {"measurement": "inhibition", "setting": "PRKCE (human); compound 0.1 µM", "result": 6.5, "unit": "%"}, {"measurement": "inhibition", "setting": "PRKCE (human); compound 1.0 µM", "result": 1.1, "unit": "%"}, {"measurement": "inhibition", "setting": "ROCK2 (human); compound 0.1 µM", "result": -6.7, "unit": "%"}, {"measurement": "inhibition", "setting": "ROCK2 (human); compound 1.0 µM", "result": -5.4, "unit": "%"}, {"measurement": "inhibition", "setting": "TSSK1B (human); compound 0.1 µM", "result": 19.8, "unit": "%"}, {"measurement": "inhibition", "setting": "TSSK1B (human); compound 1.0 µM", "result": -1.7, "unit": "%"}, {"measurement": "inhibition", "setting": "HCK (human); compound 0.1 µM", "result": -5.1, "unit": "%"}, {"measurement": "inhibition", "setting": "HCK (human); compound 1.0 µM", "result": 1.6, "unit": "%"}, {"measurement": "inhibition", "setting": "PIM1 (human); compound 0.1 µM", "result": -3.6, "unit": "%"}, {"measurement": "inhibition", "setting": "PIM1 (human); compound 1.0 µM", "result": -16.7, "unit": "%"}, {"measurement": "inhibition", "setting": "KDR (human); compound 0.1 µM", "result": 7.9, "unit": "%"}, {"measurement": "inhibition", "setting": "KDR (human); compound 1.0 µM", "result": 28.2, "unit": "%"}, {"measurement": "inhibition", "setting": "MAPK11 (human); compound 0.1 µM", "result": -11, "unit": "%"}, {"measurement": "inhibition", "setting": "MAPK11 (human); compound 1.0 µM", "result": -1.8, "unit": "%"}, {"measurement": "inhibition", "setting": "CHEK1 (human); compound 0.1 µM", "result": 2, "unit": "%"}, {"measurement": "inhibition", "setting": "CHEK1 (human); compound 1.0 µM", "result": 2.5, "unit": "%"}, {"measurement": "inhibition", "setting": "CHEK2 (human); compound 0.1 µM", "result": -0.4, "unit": "%"}, {"measurement": "inhibition", "setting": "CHEK2 (human); compound 1.0 µM", "result": 4.5, "unit": "%"}, {"measurement": "inhibition", "setting": "[1]; compound 0.1 µM", "result": 5.5, "unit": "%"}, {"measurement": "inhibition", "setting": "[1]; compound 1.0 µM", "result": 15.5, "unit": "%"}, {"measurement": "inhibition", "setting": "PRKCB1 (human)", "result": 0.9, "unit": "%"}, {"measurement": "inhibition", "setting": "AURKC (human); compound 0.1 µM", "result": 4.3, "unit": "%"}, {"measurement": "inhibition", "setting": "AURKC (human); compound 1.0 µM", "result": 55.5, "unit": "%"}, {"measurement": "inhibition", "setting": "CSNK1D (human); compound 0.1 µM", "result": 7.8, "unit": "%"}, {"measurement": "inhibition", "setting": "CSNK1D (human); compound 1.0 µM", "result": 8.9, "unit": "%"}, {"measurement": "inhibition", "setting": "MARK3 (human); compound 0.1 µM", "result": -7.9, "unit": "%"}, {"measurement": "inhibition", "setting": "MARK3 (human); compound 1.0 µM", "result": -4.1, "unit": "%"}, {"measurement": "inhibition", "setting": "DYRK1A (human); compound 0.1 µM", "result": -4.6, "unit": "%"}, {"measurement": "inhibition", "setting": "DYRK1A (human); compound 1.0 µM", "result": -2.8, "unit": "%"}, {"measurement": "inhibition", "setting": "FLT3 (human); compound 0.1 µM", "result": 1.3, "unit": "%"}, {"measurement": "inhibition", "setting": "FLT3 (human); compound 1.0 µM", "result": 24.2, "unit": "%"}, {"measurement": "inhibition", "setting": "MAPK14 (human); compound 0.1 µM", "result": 5.3, "unit": "%"}, {"measurement": "inhibition", "setting": "MAPK14 (human); compound 1.0 µM", "result": -2.7, "unit": "%"}, {"measurement": "inhibition", "setting": "TSSK2 (human)", "result": -7.1, "unit": "%"}, {"measurement": "inhibition", "setting": "FGFR4 (human); compound 0.1 µM", "result": -0.6, "unit": "%"}, {"measurement": "inhibition", "setting": "FGFR4 (human); compound 1.0 µM", "result": 15.7, "unit": "%"}, {"measurement": "inhibition", "setting": "MAPK13 (human); compound 0.1 µM", "result": -7.9, "unit": "%"}, {"measurement": "inhibition", "setting": "MAPK13 (human); compound 1.0 µM", "result": -7.1, "unit": "%"}, {"measurement": "inhibition", "setting": "RAF1 (human); compound 0.1 µM", "result": 5.1, "unit": "%"}, {"measurement": "inhibition", "setting": "RAF1 (human); compound 1.0 µM", "result": 1.4, "unit": "%"}, {"measurement": "inhibition", "setting": "IRAK4 (human); compound 0.1 µM", "result": -12, "unit": "%"}, {"measurement": "inhibition", "setting": "IRAK4 (human); compound 1.0 µM", "result": 4.2, "unit": "%"}, {"measurement": "inhibition", "setting": "ABL2 (human); compound 0.1 µM", "result": -5.3, "unit": "%"}, {"measurement": "inhibition", "setting": "ABL2 (human); compound 1.0 µM", "result": 6.8, "unit": "%"}, {"measurement": "inhibition", "setting": "PIM2 (human); compound 0.1 µM", "result": -2.1, "unit": "%"}, {"measurement": "inhibition", "setting": "PIM2 (human); compound 1.0 µM", "result": 4.7, "unit": "%"}, {"measurement": "inhibition", "setting": "[2]; compound 0.1 µM", "result": 4.6, "unit": "%"}, {"measurement": "inhibition", "setting": "[2]; compound 1.0 µM", "result": 9.3, "unit": "%"}, {"measurement": "inhibition", "setting": "PRKD3 (human); compound 0.1 µM", "result": -6.1, "unit": "%"}, {"measurement": "inhibition", "setting": "PRKD3 (human); compound 1.0 µM", "result": 3.6, "unit": "%"}, {"measurement": "inhibition", "setting": "IGF1R (human); compound 0.1 µM", "result": -23.8, "unit": "%"}, {"measurement": "inhibition", "setting": "IGF1R (human); compound 1.0 µM", "result": -10, "unit": "%"}, {"measurement": "inhibition", "setting": "INSR (human); compound 0.1 µM", "result": 1.4, "unit": "%"}, {"measurement": "inhibition", "setting": "INSR (human); compound 1.0 µM", "result": 3.5, "unit": "%"}]}]}
